Several values for one entry are separate records, joined by “and”; a condition that tells them apart may be missing. Equal values may be shown once. Entries after “also recorded” stand apart in the source; their conditions may differ.
Tests used:
E. coli DNA gyrase = target: T1, E. coli DNA gyrase (Escherichia coli, UniProt P0AES4); assay: Gyrase supercoiling inhibition, gel-based; assay type: biochemical
T1 construct: purchased Inspiralis Limited
Procedure: Of this stock solution, 27 µl was aliquoted for each reaction in 1.5 ml Eppendorf tubes and supplemented with 0.6 µl of the appropriate compound dilution or corresponding solvent with a final DMSO concentration of 2%. The reactions were started with 3 µl of enzyme (1 U for WT gyrase retrieved from Inspiralis Limited or 25–30 nM gyrase variants purified in house) in dilution buffer (50 mM Tris–HCl (pH 7.5), 100 mM KCl, 2 mM DTT, 1 mM EDTA and 50% (wt/vol) glycerol) for a final volume of 30 µl. Reactions were run at 37 °C for 30 min and stopped with the addition of 30 µl STEB buffer (40% (wt/vol) sucrose, 100 mM Tris–HCl pH 8, 100 mM EDTA, 0.5 mg ml^−1 bromophenol blue) and 30 µl of a chloroform:isoamyl alcohol solution (24:1 vol/vol). After brief vortexing and centrifugation at 2,300g for 1 min, 20 µl of the aqueous phase was loaded onto 1% (wt/vol) agarose gels in TAE ([…]) gel. The gels were run at 85 V for 2 h followed by staining (15 min) in 1 µg ml^−1 ethidium bromide and destaining (5–10 min) in water. […] IC50 curves were generated in GraphPad Prism (v9.0.0) using the non-linear regression curve fit variable slope with four parameters and least squares regression. A. baumannii and P. aeruginosa gyrase supercoiling inhibition assays were set up in the same way as E. coli gyrase supercoiling assays. The enzyme was retrieved from Inspiralis Ltd. (PAG1001 and ABG1001) and tested in-house for activity with ×5 U enzyme used for each reaction.

E. coli = assay: Checkerboard assay LEI-800 with CIP; assay type: cell-based, Escherichia coli;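 also: bacterial growth read as OD600 after 20 h at 37 °C with shaking, each drug pair tested in triplicate wells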
E. coli BW25113 = assay: Bacterial cytological profiling (BCP); assay type: cell-based, Escherichia coli; design: DAPI total area / DAPI nucleoid area / DIC area / DIC curvature / DIC feret / DIC length / DIC orientation: unit not given here; conditions: for DAPI aspect ratio / DAPI circularity / DAPI nucleoid area / DAPI nucleoids / DAPI perimeter / DAPI roundness / DAPI solidity / DAPI total area / DIC area / DIC aspect ratio / DIC circularity / DIC curvature / DIC feret / DIC length / DIC orientation / DIC perimeter / DIC roundness / DIC sinuosity / DIC solidity / DIC width / Decondensation / DIC angularity / DAPI intensity / SYTOX Green intensity: BCP; for morphological phenotype: BCP microscopy, 6.25 µM; for DIC angularity: 2 h, AMP 12.5, RIF 12.5, TET 6.25, CIP 0.0625, LEI-801 6.25, LEI-800 6.25 µM, average ± SD of 3 replicates; for DAPI intensity / SYTOX Green intensity: standardized to DMSO control
Procedure: Overnight E. coli BW25113 cultures were diluted 1:100 in fresh LB medium in a 100 ml Erlenmeyer flask and incubated at 120 r.p.m. and 37 °C. When OD600 >0.2, the cultures were diluted to OD600 of 0.1 in fresh LB medium with a final volume of 200 µl in a 2 ml Eppendorf tube. The appropriate antibiotic or control treatment was applied and the samples were incubated at 200 r.p.m. and 30 °C for 2 h. Subsequently, 4,6-diamidino-2-phenylindole (DAPI) (2 µg ml^−1), FM4-64 (2 µg ml^−1) and SYTOX Green (0.5 µM) were added to reach the desired concentration and the samples were incubated a further 10 min. The samples were then centrifuged at 3,300g for 50 s and the pellets resuspended in half the original volume. From this suspension, 5 µl was spotted onto a 2.0% agarose pad for microscopy.
Microscopy was performed on a Zeiss Axio Observer Z1/7 inverted microscope.
For the qualitative assessment of the bacterial morphology, the acquired images were first pre-processed in ImageJ (v1.53m)[47]. Thereafter the brightness and contrast were adjusted to allow the clearest visual inspection of the particular phenotype. For the quantitative BCP, DIC images were first pre-processed and then a random forest classifier was trained with Illastik (v1.3.3)[48] to generate a segmented image. These binary masks were then combined together with the original DIC image and processed with the ImageJ plugin MicrobeJ (v 5.13l)[49]. MicrobeJ generated cell outlines and performed measurements on cell shape accordingly. The recorded cell outlines produced by MicrobeJ were exported and used as a guide to characterize the DNA shape within each bacterium using a custom-made ImageJ macro (Appendix II). DAPI and SYTOX Green intensity were measured on raw images in a similar manner. Then, by hand, polygons were drawn that excluded bacteria to determine background intensity. After background correction the intensity was standardized to the DMSO control within the same biological replicate. For PCA, the BCP assay was executed for three independently biological replicates. During each experiment, images were acquired until 24 or more bacteria in total had been observed. Following feature extraction for each replicate, principal component analysis was performed using GraphPad Prism (v9.0.0) using multiple variable analysis with standardized data. Principal components (PCs) were selected based on the per cent of total explained variance (minimum 80%).

[1] = Ciprofloxacin 0 nM + LEI-800 0.1 µM
[2] = Ciprofloxacin 0 nM + LEI-800 0.2 µM
[3] = Ciprofloxacin 0 nM + LEI-800 0.4 µM
[4] = Ciprofloxacin 0 nM + LEI-800 0.8 µM
[5] = Ciprofloxacin 0 nM + LEI-800 3.1 µM
[6] = Ciprofloxacin 0 nM + LEI-800 6.2 µM

T1 sequence (P0AES4 whole entry): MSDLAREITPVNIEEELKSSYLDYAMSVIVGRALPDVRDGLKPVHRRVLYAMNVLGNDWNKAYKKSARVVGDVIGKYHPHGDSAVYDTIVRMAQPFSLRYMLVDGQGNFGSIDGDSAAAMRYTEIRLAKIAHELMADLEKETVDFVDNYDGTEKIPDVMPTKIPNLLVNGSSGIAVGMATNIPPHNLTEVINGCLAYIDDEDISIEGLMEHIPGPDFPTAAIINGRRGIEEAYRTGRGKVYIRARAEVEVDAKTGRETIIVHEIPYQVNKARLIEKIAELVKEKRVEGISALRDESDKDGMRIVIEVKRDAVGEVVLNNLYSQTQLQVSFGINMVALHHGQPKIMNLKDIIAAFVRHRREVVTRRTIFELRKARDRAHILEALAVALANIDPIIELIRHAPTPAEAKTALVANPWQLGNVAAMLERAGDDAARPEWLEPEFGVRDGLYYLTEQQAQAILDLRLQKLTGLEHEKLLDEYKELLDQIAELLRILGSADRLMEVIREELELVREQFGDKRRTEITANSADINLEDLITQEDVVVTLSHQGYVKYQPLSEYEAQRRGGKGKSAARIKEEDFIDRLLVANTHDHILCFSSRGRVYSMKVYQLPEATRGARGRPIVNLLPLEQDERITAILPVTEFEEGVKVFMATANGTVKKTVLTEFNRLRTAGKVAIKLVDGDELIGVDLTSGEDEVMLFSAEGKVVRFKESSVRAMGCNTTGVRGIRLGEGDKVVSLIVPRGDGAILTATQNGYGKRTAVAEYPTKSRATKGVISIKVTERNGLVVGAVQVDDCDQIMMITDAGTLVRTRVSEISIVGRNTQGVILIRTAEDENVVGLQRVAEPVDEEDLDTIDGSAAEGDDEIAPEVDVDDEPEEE

With `O=S(=O)(NC[C@@H]1CC[C@H](c2ccc(-c3cccnc3)cc2)N1)c1cccc2cnccc12` [LEI-800] the IC50 (E. coli DNA gyrase) was 35 nM, the “fold more potent than CIP” value (E. coli DNA gyrase; supercoiling IC50 ratio) was > 25 fold and the “checkerboard plate reading, Average values” (E. coli; [1]) was 0.7858. For the same compound, the “checkerboard plate reading, replicate wells” value (E. coli; [1]) was 0.7683 and 0.7669 and 0.8222, the “checkerboard plate reading, Average values” (E. coli; [2]) was 0.7715 and the “checkerboard plate reading, replicate wells” value (E. coli; [2]) was 0.7509 and 0.7706 and 0.7931. The “checkerboard plate reading, Average values” (E. coli; [3]) was 0.7601, the “checkerboard plate reading, replicate wells” value (E. coli; [3]) was 0.7802 and 0.7598 and 0.7404 and the “checkerboard plate reading, Average values” (E. coli; [4]) was 0.5878. The “checkerboard plate reading, replicate wells” value (E. coli; [4]) was 0.6002 and 0.5903 and 0.5728, the “checkerboard plate reading, Average values” (E. coli; [5]) was 0.291 and the “checkerboard plate reading, replicate wells” value (E. coli; [5]) was 0.2991 and 0.2865 and 0.2872. The “checkerboard plate reading, Average values” (E. coli; [6]) was 0.1602, the “checkerboard plate reading, replicate wells” value (E. coli; [6]) was 0.157 and 0.1619 and 0.1616 and the “checkerboard plate reading, Average values” (E. coli; Ciprofloxacin 0 nM + LEI-800 […]) was 0.4748. The “PCA clustering of 24 BCP features” value (E. coli BW25113) was “formed a cluster by itself”, the DAPI aspect ratio (E. coli BW25113) was 5.858 ± 1.821 and the DAPI circularity (E. coli BW25113) was 0.365 ± 0.084. For the same compound, the DAPI nucleoid area (E. coli BW25113) was 6.481 ± 2.006, the DAPI nucleoids (E. coli BW25113) was 1.368 ± 0.202 and the DAPI perimeter (E. coli BW25113) was 16.318 ± 5.417. It also gave a DAPI roundness (E. coli BW25113) of 0.220 ± 0.035, a DAPI solidity (E. coli BW25113) of 0.808 ± 0.077 and a DAPI total area (E. coli BW25113) of 8.438 ± 3.339. It also gave a DIC area (E. coli BW25113) of 13.636 ± 0.225, a DIC aspect ratio (E. coli BW25113) of 6.808 ± 0.283 and a DIC circularity (E. coli BW25113) of 0.292 ± 0.021. It also gave a DIC curvature (E. coli BW25113) of 0.034 ± 0.003, a DIC feret (E. coli BW25113) of 11.758 ± 0.377 and a DIC length (E. coli BW25113) of 11.910 ± 0.403. It also gave a DIC orientation (E. coli BW25113) of 88.418 ± 18.119, a DIC perimeter (E. coli BW25113) of 25.156 ± 0.728 and a DIC roundness (E. coli BW25113) of 0.139 ± 0.012. It also gave a DIC sinuosity (E. coli BW25113) of 1.021 ± 0.003, a DIC solidity (E. coli BW25113) of 0.793 ± 0.033 and a DIC width (E. coli BW25113) of 1.163 ± 0.063. For the same compound, the Decondensation (E. coli BW25113) was 0.616 ± 0.234, the “morphological phenotype” value (E. coli BW25113) was “elongation of the bacteria and condensation of the DNA; also recorded: phenotype resembling the CIP and TET morphological profile” and the DIC angularity (E. coli BW25113) was 0.076 ± 0.010. For the same compound, the DAPI intensity (E. coli BW25113) was 0.513 ± 0.191 and the “SYTOX Green intensity” value (E. coli BW25113) was 2.259 ± 1.119.
`O=S(=O)(NC[C@H]1CC[C@@H](c2ccc(-c3ccc(F)nc3)cc2)N1)c1cccc2cnccc12` [LEI-801] was tested, and the IC50 (E. coli DNA gyrase) was 440 nM, the “fold less potent than LEI-800” value (E. coli DNA gyrase; supercoiling IC50 ratio) was 13 fold and the “PCA clustering of 24 BCP features” value (E. coli BW25113) was “clustered with DMSO”. The DAPI aspect ratio (E. coli BW25113) was 2.179 ± 0.107, the DAPI circularity (E. coli BW25113) was 0.723 ± 0.016 and the DAPI nucleoid area (E. coli BW25113) was 2.366 ± 0.636. The DAPI nucleoids (E. coli BW25113) was 1.288 ± 0.064, the DAPI perimeter (E. coli BW25113) was 6.375 ± 0.894 and the DAPI roundness (E. coli BW25113) was 0.484 ± 0.024. For the same compound, the DAPI solidity (E. coli BW25113) was 0.916 ± 0.005, the DAPI total area (E. coli BW25113) was 2.897 ± 0.869 and the DIC area (E. coli BW25113) was 3.335 ± 0.139. The DIC aspect ratio (E. coli BW25113) was 2.661 ± 0.151, the DIC circularity (E. coli BW25113) was 0.699 ± 0.026 and the DIC curvature (E. coli BW25113) was 0.150 ± 0.018. For the same compound, the DIC feret (E. coli BW25113) was 3.227 ± 0.127, the DIC length (E. coli BW25113) was 3.253 ± 0.128 and the DIC orientation (E. coli BW25113) was 96.714 ± 3.816. For the same compound, the DIC perimeter (E. coli BW25113) was 7.768 ± 0.245, the DIC roundness (E. coli BW25113) was 0.422 ± 0.025 and the DIC sinuosity (E. coli BW25113) was 1.026 ± 0.005. The DIC solidity (E. coli BW25113) was 0.962 ± 0.004, the DIC width (E. coli BW25113) was 1.085 ± 0.030 and the Decondensation (E. coli BW25113) was 0.863 ± 0.226. The “morphological phenotype” value (E. coli BW25113) was “phenotype that is consistent with the DMSO control”, the DIC angularity (E. coli BW25113) was 0.123 ± 0.008 and the DAPI intensity (E. coli BW25113) was 1.156 ± 0.345. The “SYTOX Green intensity” value (E. coli BW25113) was 1.000 ± 0.284.

Source: publication PMC11374673, “Discovery of isoquinoline sulfonamides as allosteric gyrase inhibitors with activity against fluoroquinolone-resistant bacteria” (Nature Chemistry, 2024)
